Measurements taken from DBAASP.
Converted amounts (≈) assume the structure as drawn.

How the values were obtained:
Assay in all cases: ≥ marks a high value that may be exact or a test limit, other limits are often not marked, values filed in µg/mL are converted to µM
[1] = test system: Staphylococcus aureus
[2] = test system: Bacillus cereus
[3] = test system: Escherichia coli
[4] = test system: Klebsiella pneumoniae ATCC 700603
[5] = test system: Staphylococcus epidermidis ATCC 12228
[6] = test system: Bacillus subtilis ATCC 6633
[7] = test system: Escherichia coli ATCC 25922
[8] = test system: Staphylococcus aureus ATCC 25923
[9] = test system: Pseudomonas aeruginosa ATCC 27853
[10] = test system: Candida albicans ATCC 90028
[11] = test system: Staphylococcus aureus ATCC 29213
[12] = test system: Salmonella typhimurium KCTC 1926
[13] = test system: Pseudomonas aeruginosa ATCC 9027
[14] = test system: Acinetobacter baumannii
[15] = test system: Enterococcus faecalis ATCC 29212
[16] = test system: Candida albicans ATCC 10231

`CC(C)C[C@H](NC(=O)[C@@H](N)Cc1ccccc1)C(=O)NCC(=O)N[C@H](C(=O)N[C@H](C(=O)N[C@@H](Cc1ccccc1)C(=O)N[C@@H](CCCCN)C(=O)N[C@@H](CCCCN)C(=O)N[C@@H](C)C(=O)N[C@@H](CO)C(=O)N[C@@H](CCCCN)C(=O)N[C@H](C(=O)N[C@@H](Cc1ccccc1)C(=O)NCC(=O)N[C@@H](C)C(=O)N[C@H](C(=O)N[C@@H](Cc1ccccc1)C(=O)NCC(=O)N[C@@H](CCCCN)C(=O)N[C@H](C(=O)O)C(C)C)C(C)C)C(C)C)C(C)C)C(C)C` [FLGVVFKKASKVFGAVFGKV] was tested, and the MIC [1] was > 120 µM, the MIC [2] was ≥ 60.1 µM and the MIC [3] was 30.1 µM (≈ 64 µg/mL).
`CC(C)C[C@H](NC(=O)[C@H](CCCCN)NC(=O)[C@H](Cc1ccccc1)NC(=O)[C@@H](NC(=O)[C@@H](NC(=O)CNC(=O)[C@H](CC(C)C)NC(=O)[C@@H](N)Cc1ccccc1)C(C)C)C(C)C)C(=O)N[C@@H](C)C(=O)N[C@@H](CO)C(=O)N[C@@H](CCCCN)C(=O)N[C@H](C(=O)N[C@@H](Cc1ccccc1)C(=O)NCC(=O)N[C@@H](CCCCN)C(=O)N[C@H](C(=O)N[C@@H](Cc1ccccc1)C(=O)NCC(=O)N[C@@H](CCCCN)C(=O)N[C@H](C(=O)O)C(C)C)C(C)C)C(C)C` [FLGVVFKLASKVFGKVFGKV] was tested, and the MIC [1] was 3.69 µM (≈ 8 µg/mL), the MIC [2] was 3.69 µM (≈ 8 µg/mL) and the MIC [3] was 29.5 µM (≈ 64 µg/mL).
`CC(C)C[C@H](NC(=O)[C@@H](N)Cc1ccccc1)C(=O)NCC(=O)N[C@H](C(=O)N[C@H](C(=O)N[C@@H](Cc1ccccc1)C(=O)N[C@@H](CCCCN)C(=O)N[C@@H](CO)C(=O)N[C@@H](C)C(=O)N[C@@H](CO)C(=O)N[C@@H](CCCCN)C(=O)N[C@H](C(=O)N[C@@H](Cc1ccccc1)C(=O)N1CCC[C@H]1C(=O)N[C@@H](C)C(=O)N[C@H](C(=O)N[C@@H](Cc1ccccc1)C(=O)NCC(=O)N[C@@H](CCCCN)C(=O)N[C@H](C(=O)O)C(C)C)C(C)C)C(C)C)C(C)C)C(C)C` [FLGVVFKSASKVFPAVFGKV] was tested, and the MIC [1] was > 120 µM, the MIC [2] was ≥ 120 µM and the MIC [3] was > 120 µM.
Work on `CC(=O)N[C@@H](CCCCN)C(=O)N[C@@H](Cc1ccccc1)C(=O)N[C@@H](CC(C)C)C(=O)N[C@@H](CCCCN)C(=O)N[C@@H](CC(C)C)C(=O)N[C@@H](CCCCN)C(=O)N[C@@H](Cc1c[nH]c2ccccc12)C(=O)N[C@@H](CC(C)C)C(=O)N[C@@H](CCCCN)C(=O)N[C@@H](CO)C(=O)N[C@@H](Cc1c[nH]c2ccccc12)C(=O)N[C@@H](CCCCN)C(=O)N[C@@H](CC(N)=O)C(=O)N[C@@H](Cc1ccccc1)C(=O)N[C@@H](CCCCN)C(N)=O` [KFLKLKWLKSWKNFK] yielded an MIC [4] of 25 µM (≈ 50.9 µg/mL), an MIC [5] of 12.5 µM (≈ 25.4 µg/mL) and an MIC [6] of 6.4 µM (≈ 13 µg/mL). It also gave an MIC [7] of 12.5 µM (≈ 25.4 µg/mL), an MIC [8] of 50 µM (≈ 102 µg/mL) and an MIC [9] of 12.5 µM (≈ 25.4 µg/mL).
`CC[C@H](C)[C@H](NC(=O)[C@H](CCCN=C(N)N)NC(=O)[C@H](CCC(N)=O)NC(=O)[C@@H](NC(=O)[C@@H](NC(=O)[C@H](CCCCN)NC(=O)[C@@H](N)CCCCN)[C@@H](C)CC)C(C)C)C(=O)N[C@@H](CCCCN)C(=O)N[C@@H](CC(=O)O)C(=O)N[C@@H](Cc1ccccc1)C(=O)N[C@@H](CC(C)C)C(=O)N[C@@H](CCCN=C(N)N)C(=O)O` [KKIVQRIKDFLR] gave an MIC [7] of 5 µM (≈ 7.72 µg/mL), an MIC [10] of 10 µM (≈ 15.4 µg/mL) and an MIC [11] of 5 µM (≈ 7.72 µg/mL). The MIC [9] was 10 µM (≈ 15.4 µg/mL).
Work on `CC[C@H](C)[C@H](NC(=O)[C@H](CCCN=C(N)N)NC(=O)[C@H](C)NC(=O)[C@@H](NC(=O)[C@@H](NC(=O)[C@H](CCCN=C(N)N)NC(=O)[C@@H](N)CCCCN)[C@@H](C)CC)C(C)C)C(=O)N[C@@H](CCCCN)C(=O)N[C@@H](C)C(=O)N[C@@H](Cc1ccccc1)C(=O)N[C@@H](CC(C)C)C(=O)N[C@@H](CCCN=C(N)N)C(=O)O` [KRIVARIKAFLR] yielded an MIC [7] of 1.25 µM (≈ 1.84 µg/mL), an MIC [10] of 2.5 µM (≈ 3.68 µg/mL) and an MIC [11] of 2.5 µM (≈ 3.68 µg/mL). The MIC [9] was 1.25 µM (≈ 1.84 µg/mL).
`CC[C@H](C)[C@H](NC(=O)[C@H](CCCCN)NC(=O)[C@H](CCC(N)=O)NC(=O)[C@@H](NC(=O)[C@@H](NC(=O)[C@H](CCCN=C(N)N)NC(=O)[C@@H](N)CCCCN)[C@@H](C)CC)C(C)C)C(=O)N[C@@H](CCCCN)C(=O)N[C@@H](CC(=O)O)C(=O)N[C@@H](Cc1ccccc1)C(=O)N[C@@H](CC(C)C)C(=O)N[C@@H](CCCN=C(N)N)C(=O)O` [KRIVQKIKDFLR] gave an MIC [7] of 5 µM (≈ 7.72 µg/mL), an MIC [10] of 20 µM (≈ 30.9 µg/mL) and an MIC [11] of 10 µM (≈ 15.4 µg/mL). It also gave an MIC [9] of 10 µM (≈ 15.4 µg/mL).
With `CC[C@H](C)[C@H](NC(=O)[C@H](CCCN=C(N)N)NC(=O)[C@H](CCC(N)=O)NC(=O)[C@@H](NC(=O)[C@@H](NC(=O)[C@H](CCCN=C(N)N)NC(=O)[C@@H](N)CCCCN)[C@@H](C)CC)C(C)C)C(=O)N[C@@H](CCCCN)C(=O)N[C@@H](CC(=O)O)C(=O)N[C@@H](Cc1ccccc1)C(=O)N[C@@H](CC(C)C)C(=O)N[C@@H](C)C(=O)O` [KRIVQRIKDFLA] the MIC [7] was 40 µM (≈ 59.5 µg/mL), the MIC [10] was ≥ 40 µM and the MIC [11] was 40 µM (≈ 59.5 µg/mL). The MIC [9] was 40 µM (≈ 59.5 µg/mL).
In the case of `CC[C@H](C)[C@H](NC(=O)[C@@H](NC(=O)[C@@H](NC(=O)[C@H](CCCN=C(N)N)NC(=O)[C@@H](NC(=O)[C@@H](NC(=O)[C@H](CC(C)C)NC(=O)[C@@H]1CCCN1C(=O)[C@H](Cc1c[nH]c2ccccc12)NC(=O)[C@@H](NC(=O)[C@H](CCCN=C(N)N)NC(=O)[C@@H](N)CCCCN)C(C)C)C(C)C)[C@@H](C)CC)[C@@H](C)O)C(C)C)C(=O)N[C@@H](C)C(=O)NCC(=O)N[C@@H](Cc1ccc(O)cc1)C(=O)N[C@@H](CC(N)=O)C(=O)N[C@@H](CC(C)C)C(=O)N[C@@H](Cc1ccc(O)cc1)C(=O)N[C@@H](CCCN=C(N)N)C(=O)O` [KRVWPLVIRTVIAGYNLYR], the MIC [12] was ≥ 32 µM.
With `CC[C@H](C)[C@H](NC(=O)[C@H](CC(C)C)NC(=O)[C@H](CCCCN)NC(=O)[C@H](CCCN=C(N)N)NC(=O)[C@H](CC(N)=O)NC(=O)[C@H](CC(C)C)NC(=O)[C@H](CCCCN)NC(=O)[C@H](Cc1c[nH]c2ccccc12)NC(=O)[C@@H](NC(=O)[C@@H](NC(=O)[C@H](CO)NC(=O)[C@H](Cc1ccccc1)NC(=O)[C@@H](N)CC(C)C)[C@@H](C)CC)[C@@H](C)CC)C(=O)N[C@@H](CCCCN)C(=O)N[C@@H](C)C(=O)O` [LFSIIWKLNRKLIKA] the MIC [4] was > 64 µM, the MIC [13] was > 64 µM and the MIC [7] was 64 µM (≈ 118 µg/mL). The MIC [8] was > 64 µM and the MIC [14] was ≥ 64 µM.
For `CC(C)C[C@H](NC(=O)[C@H](CCCN=C(N)N)NC(=O)[C@H](C)NC(=O)[C@@H](NC(=O)[C@H](CCCN=C(N)N)NC(=O)[C@H](CCCN=C(N)N)NC(=O)[C@H](CC(C)C)NC(=O)[C@@H](N)CC(C)C)C(C)C)C(=O)N[C@@H](CC(C)C)C(=O)N[C@@H](CCCCN)C(=O)N[C@@H](CCCN=C(N)N)C(=O)N[C@@H](Cc1ccccc1)C(=O)N[C@@H](C)C(=O)N[C@@H](CCCCN)C(=O)O` [LLRRVARLLKRFAK], the MIC [6] was 4.6 µM (≈ 8 µg/mL), the MIC [7] was 1.15 µM (≈ 2 µg/mL) and the MIC [8] was 4.6 µM (≈ 8 µg/mL). For the same molecule, the MIC [9] was 1.15 µM (≈ 2 µg/mL).
`CC(C)C[C@H](NC(=O)[C@H](CC(C)C)NC(=O)[C@H](CCCN=C(N)N)NC(=O)[C@H](CCCCN)NC(=O)[C@H](CCCN=C(N)N)NC(=O)[C@H](CC(C)C)NC(=O)[C@H](CCCCN)NC(=O)[C@H](CCCN=C(N)N)NC(=O)[C@H](CC(C)C)NC(=O)[C@H](Cc1cnc[nH]1)NC(=O)[C@H](CO)NC(=O)[C@H](C)NC(=O)[C@H](CC(C)C)NC(=O)[C@H](CCCN=C(N)N)NC(=O)[C@@H](NC(=O)[C@H](CC(C)C)NC(=O)[C@H](CCCN=C(N)N)NC(=O)[C@H](CCCCN)NC(=O)[C@H](CCCN=C(N)N)NC(=O)[C@H](CC(C)C)NC(=O)[C@H](CCCCN)NC(=O)[C@H](CCCN=C(N)N)NC(=O)[C@@H](N)CC(C)C)C(C)C)C(=O)O` [LRKLRKRLVRLASHLRKLRKRLL] was tested, and the MIC [15] was > 10.9 µM, the MIC [7] was 2.05 µM (≈ 6 µg/mL) and the MIC [14] was 2.05 µM (≈ 6 µg/mL). The MIC [11] was 5.47 µM (≈ 16 µg/mL) and the MIC [9] was 2.74 µM (≈ 8 µg/mL).
In the case of `C[C@H](NC(=O)[C@H](Cc1c[nH]c2ccccc12)NC(=O)[C@H](CCCCN)NC(=O)[C@H](Cc1ccccc1)NC(=O)[C@H](CCCN=C(N)N)NC(=O)[C@H](Cc1c[nH]c2ccccc12)NC(=O)[C@@H](N)CCCN=C(N)N)C(=O)N[C@@H](CCCCN)C(=O)N[C@@H](CCCCN)C(=O)O` [RWRFKWAKK], the MIC [6] was ≥ 76.6 µM, the MIC [7] was > 76.6 µM and the MIC [8] was > 76.6 µM. For the same molecule, the MIC [16] was > 76.6 µM.
`CC(C)C[C@H](NC(=O)[C@H](CCCCN)NC(=O)[C@@H]1CCCN1C(=O)[C@H](CC(C)C)NC(=O)[C@H](CC(C)C)NC(=O)[C@@H]1CCCN1C(=O)[C@H](CCCCN)NC(=O)[C@H](CC(C)C)NC(=O)[C@H](CCCCN)NC(=O)[C@@H]1CCCN1C(=O)[C@H](CC(C)C)NC(=O)[C@H](CC(C)C)NC(=O)[C@H](CC(C)C)NC(=O)[C@H](CCCCN)NC(=O)[C@H](CC(C)C)NC(=O)[C@H](CC(C)C)NC(=O)[C@H](CCCCN)NC(=O)[C@@H](N)Cc1ccc(O)cc1)C(N)=O` [YKLLKLLLPKLKPLLPKL] was tested, and the MIC [16] was > 79.7 µM, the MIC [11] was 23.3 µM (≈ 49.7 µg/mL) and the MIC [9] was 19.9 µM (≈ 42.4 µg/mL).
